What was measured:
[1] = test system: P. berghei; test: Effect of PAA on survival of infected mice; assay type: in vivo, BALB/c mice; conditions: dose in the range of about 1 to 50 mg/kg (embodiment)
Experimental: (§1) BALB/c mice (4-6 weeks old) were infected with 10^5 P. berghei parasites/mouse. After four days of infection, when phosphono acetic acid (dissolved in saline and filter sterilized) at a dose of either 25 mg/kg body weight, or 50 mg/kg body weight. The injection of phosphono acetic acid was continued, once a day, for four days. After the fourth day of injection, parasitemea was determined by making Geimsa stained blood smears from the mice.
Effect of PAA on Survival of Infected Mice
The compound of various concentrations was added to the 200 μl of synchronized P. falciparum culture (1% parasitemia). The parasitemia was checked by making Giemsa stained smear after 48 hrs of incubation at 37° C. The compound, PAA was used at the doses of 25 mg/kg and 50 mg/kg body weight. The control group indicates the group of mice infected with the parasite, but with no drug given.

[2] = test system: P. falciparum; test: Effect of drug on P. falciparum in vitro: synchronized culture, Giemsa stained smear after 48 hrs; assay type: cell-based, Plasmodium falciparum
Experimental: Phosphono acetic acid was dissolved in normal saline and filter sterilized. The compound was added to the parasite culture at different concentrations ranging from 1-400 μm. The compound phosphono acetic acid was tested at the indicated doses using the experimental protocol as described below:
Protocol for Testing the Effect of Drug on P. falciparum for In Vitro Studies
The P. falciparum cultures were synchronized at first by sorbitol treatment. The compound of various concentrations was added to the 200 μl of synchronized P. falciparum culture (1% parasitemia). The parasitemia was checked by making Giemsa stained smear after 48 hrs of incubation at 37° C. The growth of P. falciparum was inhibited in dose-dependent manner, where 1 μM concentration yielded >90% inhibition (Plate 1). The bars represent the percent inhibition, whereas, the blue curve indicates the percentage of parasitemia.
Phosphono formic acid was dissolved in normal saline and filter sterilized. The compound was added to the parasite culture at different concentrations ranging from 1-10 μM. The growth of P. falciparum was inhibited in dose-dependent manner, where 10 μM concentration yielded −70% inhibition (FIG. 2).

[3] = test system: 3D7 strain of P. falciparum; test: Microscopy of Giemsa-stained slides, 3D7 strain of P. falciparum; assay type: cell-based, Plasmodium falciparum; conditions: upon addition of PAA
Description: The effect of Phosphono Acetic Acid on the 3D7 Strain of P. falciparum Giemsa-stained slides prepared for the experiment were examined under a microscope and represented in Plate 4. […] It is clear that PAA actually kills the parasite rather than simply inhibiting their growth (FIG. 4).

[4] = test system: P. berghei; test: Effect on P. berghei infected mice (in vivo model), parasitemia by Giemsa stained blood smears; design: species or system BALB/c mice; conditions: 50 mg/kg of body weight, once a day for four days
Experimental: Effect of Phosphono Acetic Acid on P. berghei Infected Mice (In Vivo Model)
as §1

Row | Compound | enhances the survival [1] | inhibition of growth of P. falciparum ([2]; 1 μM concentration, 48 hrs, 1% parasitemia) [%] | inhibits growth of P. falciparum ([2]; range of about 1 to 5 μM (embodiment)) | effect on parasite seen under microscope [3] | inhibition of growth of P. berghei [4] [%] | inhibition of growth of P. falciparum ([2]; 10 μM concentration) [%]
1 | O=C(O)CP(=O)(O)O [phosphono acetic acid] | about 60% | > 90 | about 100% | disintegrated trophozoltes are seen | −60 | –
2 | O=C(O)P(=O)(O)O [phosphono formic acid] | – | – | – | – | – | −70

Reference: patent US20050171063A1, “Use of phosphono derivatives as anti-malarials” (priority 2003, published 2005)
